Assay results taken from patent publication US20240115557A1, “INHIBITORS OF RNA-GUIDED NUCLEASES AND USES THEREOF” (The Brigham and Women's Hospital, Inc., priority 2022, published 2024).

Molecular target: T1, SaCas9 (Staphylococcus aureus, UniProt J7RUA5)
T1 sequence (J7RUA5 1-1053): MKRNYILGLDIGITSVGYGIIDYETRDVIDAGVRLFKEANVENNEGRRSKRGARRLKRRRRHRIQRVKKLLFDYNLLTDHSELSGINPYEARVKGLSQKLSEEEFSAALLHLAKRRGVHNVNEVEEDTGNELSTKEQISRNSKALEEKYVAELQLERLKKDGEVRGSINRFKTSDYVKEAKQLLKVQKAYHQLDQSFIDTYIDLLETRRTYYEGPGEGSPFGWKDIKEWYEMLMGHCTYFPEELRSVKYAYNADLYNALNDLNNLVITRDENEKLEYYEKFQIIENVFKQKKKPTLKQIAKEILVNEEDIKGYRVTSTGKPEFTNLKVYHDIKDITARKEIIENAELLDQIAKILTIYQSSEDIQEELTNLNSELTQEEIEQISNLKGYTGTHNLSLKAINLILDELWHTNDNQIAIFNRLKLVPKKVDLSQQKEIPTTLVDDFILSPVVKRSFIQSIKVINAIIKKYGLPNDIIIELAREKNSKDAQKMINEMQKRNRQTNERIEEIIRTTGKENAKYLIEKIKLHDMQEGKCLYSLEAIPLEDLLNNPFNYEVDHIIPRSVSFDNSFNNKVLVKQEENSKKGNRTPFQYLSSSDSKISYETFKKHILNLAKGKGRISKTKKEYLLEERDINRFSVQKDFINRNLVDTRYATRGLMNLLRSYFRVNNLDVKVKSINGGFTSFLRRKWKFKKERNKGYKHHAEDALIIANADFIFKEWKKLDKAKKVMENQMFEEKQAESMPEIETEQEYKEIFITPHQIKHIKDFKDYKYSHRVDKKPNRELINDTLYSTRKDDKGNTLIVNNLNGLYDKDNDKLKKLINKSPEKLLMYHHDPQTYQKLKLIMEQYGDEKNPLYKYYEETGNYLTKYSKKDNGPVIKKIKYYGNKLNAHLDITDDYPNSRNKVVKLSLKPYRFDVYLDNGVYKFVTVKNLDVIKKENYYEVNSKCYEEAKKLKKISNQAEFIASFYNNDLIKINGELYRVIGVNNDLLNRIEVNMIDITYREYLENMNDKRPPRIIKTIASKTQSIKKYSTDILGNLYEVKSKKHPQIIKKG
Assay: Strand displacement assay, SaCas9 primary screen
Assay type: biochemical
Conditions: for Auto Zscore Rep 1 / Auto Zscore Rep 2 / Normalized Zscore Rep 1 / Normalized Zscore Rep 2: SaCas9 primary screen; for Auto Zscore Rep 1 / Normalized Zscore Rep 1: replicate 1; for Auto Zscore Rep 2 / Normalized Zscore Rep 2: replicate 2; for Normalized Zscore Rep 1 / Normalized Zscore Rep 2: weaker potential hits; for 3 sigma Hit: flag 1 = hit at 3 sigma; for 5 sigma Hit: flag 1 = hit at 5 sigma
Description: An overview of the screening for SaCas9 inhibitors is depicted in FIG. 14. A total of 43,168 Compounds were screened from the ICCB Libraries. Libraries screened for the initial compounds include ChemDiv 7 (34,848 cpds), Enamine 1 (5,280 cpds), ChemDiv1 (1,760 cpds), NIH Clinical Collection (450 cpds), Biomol 4—FDA Approved Library (640 cpds). A hit is determined from the Zscore, with 3-5σ being a weak hit, >5σ being a strong hit. The results of the hits include 193 Weak Hits and 249 Strong Hits. The NIH Clinical Collection 1-2014 was screened for 450 of 450 compounds, with 7 hits—1.5%. The Biomol 4—FDA Approved Library was screened for 640 of 640 compounds, with 8 hits—1.2%. […] Enamine 1 was screened for 5,280 of 6,004 compounds, with 44 hits—0.83%. Libraries are commercially available, with reference numbers utilized for compounds identifying the compound structures used. […]
Generalization of CAA to other Cas nucleases. Applicants sought to generalize CAA to other CRISPR-associated nucleases, including from Staphylococcus aureus (SaCas9). Given the similarities between SaCas9 and SpCas9 modes of DNA-substrate binding and protein folding,^26, 27 Applicants hypothesized that SaCas9-induced strand displacement could be similarly measured. Indeed, fluorescence quenching correlated with substrate cleavage in the CAA assay with active SaCas9:gRNA and an ACGGGT PAM sequence, which was validated with gel electrophoresis (FIG. 62F,G and FIG. 69F).
First, Applicants optimized various components and conditions of the strand displacement assay for Cas enzyme activity and generality with different Cas such as SpCas9 (FIG. 62B) or SaCas9 (FIG. 69F) or FnCas12a (FIG. 70A,B). Typically, SpCas9: gRNA (1:1.2 ratio) RNP was pre-formed at 1 μM in Cas9 assay buffer (20 mM Tris-HCl, pH=7.5, 100 mM KCl, 5 mM MgCl2) for 5 min at 4° C. before diluting to 10 nM in Cas9 assay buffer (2× final concentration). 25 μL of the Cas9 2× stock was manually dispensed to a black 384-well plate (Corning 3575) using electronic pipette. Apo SpCas9 (without guide RNA) was used at the same concentration as a control for no activity (mock inhibition). Following this, pre-annealed Alexa-Fluor 647 labeled substrate and quencher were also diluted to 1 nM and 5 nM in Cas9 assay buffer, respectively (2× stock solution). Next, 25 μL of the substrate/quencher solution was added manually to each well of the Cas9-containing 384-well plates using an electronic pipette and was incubated at 37° C. for 2.5 h. Fluorescent signals were read with the microplate reader set to read Alexa-Fluor 647 fluorescence. Assay was performed similarly with SaCas9 and FnCas12a using the respective enzyme, gRNA, substrate, and quencher oligos. Applicants similarly divulged the effect of PAM sequences of dsDNA on its assay specificity using TGG, TGC, AAC PAM containing substrates for SpCas9 (FIG. 62C), and ACGGGT, ACGGTT, TGCCCA PAM substrate for SaCas9 (FIG. 62F) and TTTC, TTGC, AAAG PAM substrates for FnCpf1 (FIG. 63B-C). Applicants also optimized the effective concentration of DS-AF647 and SS-AF647 fluorophores (FIG. 64A), DS-substrate to SpCas9 RNP ratio (FIG. 64B) and substrate to quencher ratio (FIG. 64C) on assay performance. Similarly, Applicants performed a time course experiment to establish the time required for maximum completion of the reaction at various substrate to SpCas9 RNP ratios (FIG. 64D).

Auto Zscore Rep 1 | Auto Zscore Rep 2 | Normalized Zscore Rep 1 | Normalized Zscore Rep 2 | 3 sigma Hit | 5 sigma Hit | SMILES
1.154 | −0.6566 | 0.2766 | 0.2635 | 1 | 1 | Cc1occc1-c1nnc2sc(COc3ccc(Br)cc3)nn12 [Cpd D727-0114]
0.03234 | 2.456 | 0.2698 | 0.4064 | 1 | 1 | O=c1oc2cc(OCc3nnn[nH]3)c(Cl)cc2c2c1CCC2 [Cpd D715-1040]
−1.371 | 1.264 | 0.1977 | 0.2223 | 1 | – | COc1ccc(OC)c(S(=O)(=O)Nc2cnc(N3CCCC3)c(C(=O)O)c2)c1 [Cpd F293-0436]
−0.6022 | 0.6643 | 0.2515 | 0.1978 | 1 | – | COc1ccc2cc3c(N)nn(C(=O)c4ccncc4)c3nc2c1 [Cpd C594-0003]
2.149 | 2.534 | 0.2507 | 0.2028 | 1 | 1 | CCN(Cc1ccccc1)c1ncc(NS(=O)(=O)c2cc(C)ccc2C)cc1C(=O)O [Cpd F293-0010]
−0.453 | −0.8512 | 0.1922 | 0.2017 | 1 | – | CN(C)S(=O)(=O)Nc1ccc(N2CCN(CC(=O)N3CCCC3)CC2)c(C(=O)O)c1 [Cpd F290-0671]
1.656 | 0.2997 | 0.335 | 0.2929 | 1 | 1 | Cc1cc(C)c(S(=O)(=O)Nc2cnc(N(CC(C)C)CC(C)C)c(C(=O)O)c2)cc1C [Cpd F293-0589]
−0.0443 | −0.6268 | 0.1897 | 0.2665 | 1 | – | Cc1nnc(NC(=O)CSc2ccc3nnc(-c4ccc(F)cc4)n3n2)s1 [Cpd C742-0312]
2.51 | 1.919 | 0.2077 | 0.4936 | 1 | – | Cc1cccc(Nc2nc(C(N)=O)c(NC(=O)c3ccc(F)cc3)s2)c1C [Cpd D686-0236]
0.8616 | −0.4814 | 0.1698 | 0.2567 | 1 | – | COc1ccc2cc3c(N)nn(C(=O)c4ccc(F)cc4)c3nc2c1 [Cpd C594-0010]
−0.4204 | −0.1511 | 0.1614 | 0.1636 | 1 | – | Cc1cccc(NC(=O)C2CCCN(c3ccc(-c4ccccc4)nn3)C2)c1 (stereo not shown) [Cpd F305-0007]
−0.8066 | −0.8068 | 0.4402 | 0.5823 | 1 | 1 | O=c1oc2c(O)c(O)ccc2c2c1CCC2 [Cpd D715-0012]
−0.1513 | −0.2297 | 0.2865 | 0.3127 | 1 | 1 | Cc1ccc(OCc2nn3c(-c4ccoc4C)nnc3s2)cc1 [Cpd D727-0112]
1.24 | 0.8474 | 0.2151 | 0.2232 | 1 | 1 | Cc1cc(-c2nn3c(COc4ccccc4)nnc3s2)no1 [Cpd D727-0624]
0.4938 | −1.181 | 0.2106 | 0.2618 | 1 | 1 | COc1ccc(C2CC(=O)C3=C(C2)Nc2onc(C)c2C3c2ccc(O)c(O)c2)cc1OC (stereo not shown) [Cpd D588-0034]
−0.3069 | 2.714 | 0.2035 | 0.262 | 1 | – | Cc1c(NC(=O)C2=Cc3sc4c(c3CS2)CCCC4)c(=O)n(-c2ccccc2)n1C [Cpd E722-2603]
0.1661 | 0.1101 | 0.2065 | 0.1929 | 1 | – | O=C(c1ccccc1)c1cnc2ccc(F)cc2c1S(=O)(=O)c1ccc(F)cc1 [Cpd C770-0245]
−0.2589 | −0.2694 | 0.1368 | 0.1972 | 1 | – | Cc1cc(-c2nn3c(C(C)C)nnc3s2)no1 [Cpd D727-0612]
0.2858 | −0.8337 | 0.2526 | 0.3021 | 1 | 1 | Cc1noc2c1C(c1ccc(O)c(O)c1)C1=C(CC(c3ccccc3)CC1=O)N2 (stereo not shown) [Cpd D588-0186]
−0.346 | −0.1307 | 0.1224 | 0.1125 | 1 | – | Cc1cccc(Cn2c(SCC(O)CO)nc3c2c(=O)[nH]c(=O)n3C)c1 (stereo not shown) [Compound D226-0165]
−1.043 | 2.015 | 0.4191 | 0.3634 | 1 | 1 | CC1(C)CC(=O)C2=C(C1)Nc1onc(C(C)(C)C)c1C2c1ccc(O)c(O)c1 (stereo not shown) [Cpd D733-0293]
